One may read the pKa as the pH at which an ionisable group is half protonated. Low values mean a group that gives up its proton readily, high ones a group that holds its proton tightly.

These results are taken from US20100047321A1, “SILVER ANTIMICROBIAL COMPOSITION AND USE” (priority 2008, published 2010).

One data set can be described thus: Settling test of redispersed aqueous silver chloride/gelatin dispersion (silver assay of top samples). The data set is classed as physicochemical. The note with it: redispersal and testing after storage at 40° C. for 5 days. Here is the method:
Samples were analyzed for silver content using an Automated Thioacetamide Titration system (ATT) to assay silver ion (Ag^+) present in silver containing compounds by a potentiometric titration. Silver chloride grains, which have been solubilized in a solution of thiosulfate, sodium hydroxide and gelatin, are titrated with thioacetamide to precipitate silver sulfide. The end-point of the titration is monitored potentiometrically using a silver sulfide-coated silver billet indicator electrode.
[…] To test for settling, the stirring was stopped and a 10 ml portion was removed from the top of the aliquot (time=0 sample).
Additional samples were taken in a similar manner from the unstirred aliquot at 10 minute, 30 minute, and 60 minute intervals. By comparing the theoretical silver chloride concentration (measured on a sample taken from the vigorously stirred dispersion at the conclusion of the precipitation), assuming a perfectly dispersed solution, with that determined by the ATT assay for each sample taken from the top of the aliquot, it is possible to determine the amount of AgCl product that had settled in a given time interval.
The following TABLE I contains the settling data for Invention Examples 1-7 and Comparative Examples 1-10. The settling is evaluated by comparing the silver assay results for samples taken from the top of the aliquot at time=0 or later, to the theoretical silver concentration, such that percent settle is defined by the expression (Theoretical [Ag]−Silver Assay(time))/(Theoretical [Ag]))×100.
As for `O=C1CCC(=O)N1` [Succinimide, succinimide, reference compound], the “Effectiveness of additive in reducing settling” value is on record as “ineffective”.
On to `O=c1cc[nH]c(=O)[nH]1` [Uracil, uracil, reference compound], for which the “Effectiveness of additive in reducing settling” value is recorded as “ineffective”.
Consider `Cc1nc2ncnn2c(O)c1Br` [Br-TAI, (1,2,4)triazolo(1,5-a)pyrimidin-7-ol, 6-bromo-5-methyl-], for which the “Effectiveness of additive in reducing settling” value is “remarkably effective”.
As for `O=C1NS(=O)(=O)c2ccccc21` [Saccharin, saccharin, reference compound], the “Effectiveness of additive in reducing settling” value was “ineffective”.
Still for that read-out and setting: then `Cc1cc(O)n2ncnc2n1.[Na]` [TAI, (1,2,4)triazolo(1,5-a)pyrimidin-7-ol, 5-methyl-, sodium salt], with “remarkably effective”; and `O=[N+]([O-])c1cc(Cl)cc2[nH]nnc12` [CN-BZT, 6-chloro-4-nitro-1H-benzotriazole], with “remarkably effective”; and `CSc1nc2nc(C)cc(O)n2n1` [SMe-TAI, (1,2,4)triazolo(1,5-a)pyrimidin-7-ol, 5-methyl-2-(methylthio)-], with “remarkably effective”.
Turning to `O=c1[nH]c(=O)c2[nH]c(=O)[nH]c2[nH]1` [Uric acid, uric acid], the “Effectiveness of additive in reducing settling” value was “remarkably effective”.
In the case of `CC(=O)Nc1cccc(-n2[nH]nnc2=S)c1` [APMT, acetamide, N-(3-(2,5-dihydro-5-thioxo-1H-tetrazol-1-yl)phenyl)-, reference compound], the “Effectiveness of additive in reducing settling” value was “ineffective”.
With methyl-1H-benzotriazole [Me-BZT], the “Effectiveness of additive in reducing settling” value is on record as “remarkably effective”.
As for `O=c1[nH][nH]c(=O)[nH]1` [Urazole, urazole], the “Effectiveness of additive in reducing settling” value is recorded as “remarkably effective”.

A further data set is described as follows: pKa of additive.
Conditions: not given
`O=C1CCC(=O)N1` [Succinimide, succinimide, reference compound] came in with a pKa of 9.4.
`O=c1cc[nH]c(=O)[nH]1` [Uracil, uracil, reference compound] came in with a pKa of 9.2.
On the same count and under the same terms, as for `Cc1nc2ncnn2c(O)c1Br` [Br-TAI, (1,2,4)triazolo(1,5-a)pyrimidin-7-ol, 6-bromo-5-methyl-], the figure is 4.8.
Regarding `O=C1NS(=O)(=O)c2ccccc21` [Saccharin, saccharin, reference compound], the “Additive pKa” value was found to be 1.8 and the pKa is 1.8.
`Cc1cc(O)n2ncnc2n1.[Na]` [TAI, (1,2,4)triazolo(1,5-a)pyrimidin-7-ol, 5-methyl-, sodium salt] yielded a pKa of 6.2.
`O=[N+]([O-])c1cc(Cl)cc2[nH]nnc12` [CN-BZT, 6-chloro-4-nitro-1H-benzotriazole] showed a pKa of 6.
In turn, `CSc1nc2nc(C)cc(O)n2n1` [SMe-TAI, (1,2,4)triazolo(1,5-a)pyrimidin-7-ol, 5-methyl-2-(methylthio)-] had a pKa of 6.2.
`O=c1[nH]c(=O)c2[nH]c(=O)[nH]c2[nH]1` [Uric acid, uric acid] had a pKa of 5.8.
For `CC(=O)Nc1cccc(-n2[nH]nnc2=S)c1` [APMT, acetamide, N-(3-(2,5-dihydro-5-thioxo-1H-tetrazol-1-yl)phenyl)-, reference compound], the pKa is 3.3.
`O=c1[nH][nH]c(=O)[nH]1` [Urazole, urazole] gave a pKa of 5.8.
